Source: patent publication US20170307631A1, “METHODS, SYSTEMS AND PRODUCTS FOR PREDICTING RESPONSE OF TUMOR CELLS TO A THERAPEUTIC AGENT AND TREATING A PATIENT ACCORDING TO THE PREDICTED RESPONSE” (Merrimack Pharmaceuticals, Inc., priority 2008, published 2017)

Tests used:
ErbB2 = ErbB2 (Homo sapiens, UniProt P04626); details: cited from earlier work
BT474-M3 xenograft = assay: Xenograft tumor model treated with H3×B1D2, BT474-M3; assay type: in vivo, mouse; details: 600 μg/injection every 3 days, negative RGR = tumor regression
Method: (§1) To characterize the in vivo response of tumors to H3×B1D2 treatment, a panel of tumor cell lines was tested in a xenograft tumor model such as described in Example 1. In the xenograft tumor models, mice (nu/nu mice: 4-5 week old female mice, athymic, nude, outbred background; Albino; purchased from Charles River Labs, Wilmington, Mass.) are implanted in the flank with 5×10^6-2×10^7 cells/mouse (depending on cell line) in […] subcutaneous injection. Mice are monitored for initial tumor growth. Tumors are allowed to grow for several days until the mean tumor volume is approximately 150-200 mm^3. The tumor volume is calculated as V=(π/6 (L×W^2). The mice are treated with the H3×B1D2 antibody at a dosage of 600 μg/injection every 3 days (q3d). Control mice are treated with phosphate buffered saline (PBS) or with wild-type HSA (human serum albumin). Tumor volume is measured for 40-80 days.
(§2) The control and treatment data from the in vivo xenograft experiments was fitted to exponential growth curves, using the following formula: […]
(§3) wherein V is the tumor volume, Vo is the tumor volume at time zero, k is the exponential growth rate and t is the time. The potency of H3×B1D2 in inhibiting tumor growth was represented as the ratio of treatment and control exponential growth rates for each cell line tested. This ratio was denoted “relative growth rate” (RGR) and is represented as: […]

IGROV1 xenograft = assay: Xenograft tumor model treated with H3×B1D2, IGROV1; assay type: in vivo, mouse; details: 600 μg/injection every 3 days, RGR of 1 = no effect
Method: as §1, §2, §3

LS180 xenograft = assay: Xenograft tumor model treated with H3×B1D2, LS180; assay type: in vivo, mouse; details: 600 μg/injection every 3 days, RGR of 1 = no effect
Method: as §1, §2, §3

[1] = system: pErbB3 and pAKT signaling in different cell lines; assay: Inhibition of HRG-induced pErbB3 and pAKT signaling by H3×B1D2, different cell lines; assay type: cell-based; details: across different cell lines; 5 nM HRG stimulation, ten-minute lysis
Method: (§4) For stimulation of the cells, the cells are seeded in duplicate wells with 1000 μl complete media at 150,000 cells per well in 12 well tissue culture plates (for 96 half well ELISA) or in duplicate plate of 100 μl complete media at 20,000 cells per well in 96 well tissue culture plates (for 384 well ELISA). These cells are incubated overnight in a humidified atmosphere of 5% CO2, 95% air and 37 degrees Celsius. Cells are then switched to serum free media: RPMI-1640 media (Gibco) supplemented with, 2 mM L-glutamine (Gibco) and units/mL Pen-Strep (Gibco). Starved cells are incubated in a humidified atmosphere of 5% CO2, 95% air and 37 degrees Celsius for 20-24 hours prior to stimulation. For dose-time matrix studies, cells are stimulated with ligand (HRG) at 0, 1, 2, 3, 4, 5, 7, 10, 20, 30, 60 and 120 minutes. […]
(§5) Levels of protein phosphorylation in the stimulated cells are measured by ELISA. ErbB1, ErbB2, and ErbB3 are measured using R&D Systems Duoset IC kits (ErbB1 DYC1095-E, ErbB2 DYC1768-E, ErbB3 DYC1769-E). […] All ELISAs are visualized with SuperSignal ELISA Pico Chemiluminescent Substrate (Pierce, Catalog #37069) and luminescent signal is measured using a luminometer. […]

[2] = system: pErbB3 and pAKT in OVCAR8-HER2 cells; assay: Inhibition of pErbB3 and pAKT by H3×B1D2 in OVCAR8-HER2 cells; assay type: cell-based; details: OVCAR8-HER2 (higher ErbB2 expression) compared to OVCAR8
Method: as §4, §5

[3] = system: pErbB3 and pAKT in ADRr cells; assay: Inhibition of pErbB3 and pAKT by H3×B1D2 in ADRr cells; assay type: cell-based; details: ADRr cells (low ErbB2), computational model and experimental data
Method: as §4, §5

| IC50 of inhibition of pErbB3 and pAKT signaling [1] | Molecule | Lapatinib on-rate for binding to ErbB2 or 2-3 dimers before unit conversion (ErbB2) | relative growth rate (RGR = kH3×B1D2/kcontrol) (BT474-M3 xenograft) | relative growth rate (RGR = kH3×B1D2/kcontrol) (IGROV1 xenograft) | relative growth rate (RGR = kH3×B1D2/kcontrol) (LS180 xenograft) | inhibition percentage of pErbB3 and pAKT [2] | percentage of inhibition of pErbB3 and pAKT [3] |
| --- | --- | --- | --- | --- | --- | --- | --- |
| – | CS(=O)(=O)CCNCc1ccc(-c2ccc3ncnc(Nc4ccc(OCc5cccc(F)c5)c(Cl)c4)c3c2)o1 [lapatinib] | Unit conversion calculated as 2.95e3 M^−1s^−1/ | – | – | – | – | – |
| did not greatly change | H3×B1D2: bispecific antibody, anti-ErbB3 single chain antibody H3 linked to anti-ErbB2 single chain antibody B1D2, SEQ ID NO: 41 | – | negative | greater than 1 | greater than 1 | greater inhibition percentage | poor percentage of inhibition |
